Assay results reported in article PMC8449414, “Rational design of ASCT2 inhibitors using an integrated experimental-computational approach” (Proceedings of the National Academy of Sciences of the …, 2021).
“Also recorded” adds a separate entry of the source.

How the values were obtained:
Assay in all cases: Electrophysiology: SLC1 specificity, anion current in transfected HEK293 cells
Format in all cases: cell-based
[1] = target: T1, rEAAT2 (Rattus norvegicus, UniProt P31596); conditions: 0 mV, 10 mM glutamate and 130 mM NaSCN internal, No current = no outward current up to highest concentration tested (§ 20-50, || 100-400, # 1500-2500 µM); for Ki: read-out: Binding affinity Ki
T1 construct: expressed in transfected cells; host or cells: HEK293 (ATCC CRL-11268), transient transfection
Experimental: (§1) We also tested the specificity of Lc-BPE for ASCT2 over other SLC1 family members (ASCT1, EAAT1-3, and EAAT5).
(§2) Fig. S3. SLC-1 specificity of Lc-BPE. (A) Electrophysiological current responses to the application of 100 µM glutamate (red trace) or varying concentrations of Lc-BPE (black, blue and red traces) to rEAAT1-expressing cells HEK293 cells. (B-C) Dose response curves obtained from currents recorded a fter application of Lc-BPE extracellularly to cells transiently expressing hASCT2, rASCT2, hASCT1 (panel B) and rEAAT1, rEAAT2, rEAAT3 and hEAAT5 (panel C) respectively. For hASCT2, rASCT2 and hASCT1, intracellular pipette solution contained 10 mM alanine and 130 mM NaSCN. For rEAAT1, rEAAT2, rEAAT3 and hEAAT5, intracellular solution contained 10 mM glutamate and 130 mM NaSCN. Extracellular solution was the same for all the experiments (140 mM NaCl). The voltage was 0 mV. […]
(§3) Cell culture and transfection
(§4) Human embryonic kidney 293 (HEK293, ATCC CRL -11268) cells were cultured in DMEM media supplemented with 10% (v/v) fetal bovine serum (FBS), 2 mM glutamine, 1% penicillin streptomycin solution, 1 mM sodium pyruvate and non -essential amino acids. Cells were maintained at 370C in a fully humidified atmosphere containing 5% CO2. rASCT2, hASCT2, hASCT1, EAAT1, EAAT2, EAAT3, EAAT5 and YFP complementary DNAs were each used to transiently transfect HEK293 using POLYPLUS Jet-prime transfection reagent. Cells were analyzed using electrophysiological techniques 24-40 hours after transfection.
(§5) Electrophysiological techniques
(§6) Electrophysiological experiments were performed as described previously 1,2. Stock solutions of inhibitor was prepared in dimethyl sulfoxide (DMSO) up to 100 mM.
(§7) Dilutions to working concentrations were made using external buffer. The highest […]
(§8) cells. For rASCT2, hASCT2 and hASCT1, external buffer contained 140 mM NaCl, 2 mM MgCl2, 2 mM CaCl2, and 10 mM HEPES, pH 7.40 while internal pipette solution comprised of 130 mM NaSCN, 2 mM MgCl2, 10 mM EGTA, 10 mM HEPES and 10mM alanine, pH 7.40. For specificity experiments with EAAT1, EAAT2, EAAC1 and EAAT5, internal solution contained 10 mM glutamate instead of alanine. Compounds were applied to HEK293 cells expressing DNA of interest suspended from a current recording electrode in whole cell configuration44 through a rapid solution exchange device described previously45. Cells are immersed in external buffer bath used to dissolve the inhibitors. The open pipette resistance was between 3 and 6 MΩ. Series resistance was not compensated in these experiments due to relatively small currents. Current s traces were recorded using an Adams and List EPC7 amplifier and digitized using a Molecular Devices Digidata A/D converter.
(§9) Data analysis was performed as described previously 46. Linear and nonlinear curve fitting of the experimental data were analyzed using MicroCal Origin software. Linear plots were fitted using the general equation (y = a + bx) obtaining adjusted R 2 and Pearson’s r values. Nonlinear dose–response relationships were fitted with a Michaelis – Menten-like equation to obtain apparent Ki values in the absence of substrate. For competition studies, equation I = I1 + I2 [Inh]/(Ki + [Inh]) was used for fitting, where I1 is the alanine induced current without the inhibitor, and I2 is the maximum current in the presence of saturating inhibitor concentration, [Inh]max 1,2. At least five experiments were performed for each compound. Unless stated otherwise, the error bars in all our graphs represent mean ± SD .
(§10) ASCT2 expression and purification
(§11) Human ASCT2 (hASCT2) was produced in Pichia pastoris X-33 strain (Invitrogen) in fermentor26 and purified using DDM and CHS (Anatrace) and 1 mM L-glutamine (Merck) to maintain protein stability 27. Membranes representing ~1.5 g cells were solubilized in buffer A (25 mM Tris-HCl, pH 7.4, 300 mM NaCl, 10% (vol/vol) glycerol, 1 mM L - glutamine, 1% DDM and 0.1% CHS) for 1 h at 4 °C; ultracentrifuged (30 min, 442,907 × […]

[2] = target: T2, rEAAT3 (Rattus norvegicus, UniProt P51907); conditions: 0 mV, 10 mM glutamate and 130 mM NaSCN internal, No current = no outward current up to highest concentration tested (§ 20-50, || 100-400, # 1500-2500 µM); for Ki: read-out: Binding affinity Ki
T2 construct: expressed in transfected cells; host or cells: HEK293 (ATCC CRL-11268), transient transfection
T2 sequence (P51907 1-523): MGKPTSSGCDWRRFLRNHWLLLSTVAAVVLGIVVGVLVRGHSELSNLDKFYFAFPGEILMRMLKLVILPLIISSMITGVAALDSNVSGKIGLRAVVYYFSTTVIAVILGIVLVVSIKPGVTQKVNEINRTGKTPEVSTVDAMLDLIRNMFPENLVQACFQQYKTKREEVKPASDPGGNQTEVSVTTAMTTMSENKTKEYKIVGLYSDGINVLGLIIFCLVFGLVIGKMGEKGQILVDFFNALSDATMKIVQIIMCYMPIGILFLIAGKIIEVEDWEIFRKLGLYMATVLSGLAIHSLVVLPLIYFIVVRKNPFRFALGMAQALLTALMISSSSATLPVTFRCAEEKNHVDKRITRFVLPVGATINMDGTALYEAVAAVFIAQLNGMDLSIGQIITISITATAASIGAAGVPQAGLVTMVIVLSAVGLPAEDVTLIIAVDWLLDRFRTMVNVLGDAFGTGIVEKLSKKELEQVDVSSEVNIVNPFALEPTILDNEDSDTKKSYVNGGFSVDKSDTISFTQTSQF
Experimental: as §1, §2, §3, §4, §5, §6, §7, §8, §9, §10, §11

[3] = target: T3, hEAAT5 (Homo sapiens, UniProt O00341); conditions: for Binding affinity Ki / Ki: HEK293 cells, 0 mV, 10 mM glutamate and 130 mM NaSCN internal, No current = no outward current up to highest concentration tested (§ 20-50, || 100-400, # 1500-2500 µM); for Ki: read-out: Binding affinity Ki
T3 construct: expressed in transfected cells; host or cells: HEK293 (ATCC CRL-11268), transient transfection
Experimental: as §1, §2, §3, §4, §5, §6, §7, §8, §9, §10, §11

T3 sequence (O00341 whole entry): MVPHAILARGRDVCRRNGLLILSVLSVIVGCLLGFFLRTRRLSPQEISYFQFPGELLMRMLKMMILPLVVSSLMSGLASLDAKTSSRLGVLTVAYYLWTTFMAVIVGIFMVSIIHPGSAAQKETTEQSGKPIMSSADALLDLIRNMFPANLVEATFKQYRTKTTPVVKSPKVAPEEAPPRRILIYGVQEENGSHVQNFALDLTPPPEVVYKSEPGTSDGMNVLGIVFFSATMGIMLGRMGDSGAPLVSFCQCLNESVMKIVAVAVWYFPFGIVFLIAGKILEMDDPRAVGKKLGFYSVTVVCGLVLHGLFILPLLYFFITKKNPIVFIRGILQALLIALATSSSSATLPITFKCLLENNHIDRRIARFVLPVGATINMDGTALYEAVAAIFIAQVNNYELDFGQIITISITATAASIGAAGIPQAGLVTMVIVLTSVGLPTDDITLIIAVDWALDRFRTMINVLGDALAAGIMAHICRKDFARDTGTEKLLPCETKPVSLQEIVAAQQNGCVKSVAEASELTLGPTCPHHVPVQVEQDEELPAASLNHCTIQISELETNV
T1 sequence (P31596 whole entry): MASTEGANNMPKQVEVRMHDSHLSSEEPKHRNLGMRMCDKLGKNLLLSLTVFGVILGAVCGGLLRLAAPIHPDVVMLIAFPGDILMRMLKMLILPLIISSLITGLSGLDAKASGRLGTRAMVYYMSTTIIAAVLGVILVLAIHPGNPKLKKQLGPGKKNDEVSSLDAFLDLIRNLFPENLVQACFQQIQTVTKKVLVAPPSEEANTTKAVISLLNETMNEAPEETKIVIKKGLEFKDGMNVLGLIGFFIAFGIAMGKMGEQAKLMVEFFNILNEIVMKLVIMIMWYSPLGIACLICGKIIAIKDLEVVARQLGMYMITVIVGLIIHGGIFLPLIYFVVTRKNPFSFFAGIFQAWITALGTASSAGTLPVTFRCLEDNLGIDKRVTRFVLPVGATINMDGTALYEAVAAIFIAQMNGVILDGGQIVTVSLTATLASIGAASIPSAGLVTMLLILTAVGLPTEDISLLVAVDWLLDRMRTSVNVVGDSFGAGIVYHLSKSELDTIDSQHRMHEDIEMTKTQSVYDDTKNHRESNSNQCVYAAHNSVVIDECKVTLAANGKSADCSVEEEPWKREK

Row | Structure (SMILES) | Binding affinity Ki [1] | Binding affinity Ki [2] | Binding affinity Ki [3] | Ki [1] [nM] | Ki [2] [nM] | Ki [3] [nM] | Ki for hEAAT5 higher than for rASCT2 ([3]; hEAAT5 versus rASCT2) [fold]
1 | N[C@@H](COC(=O)c1cccnc1)C(=O)O [ERA-28] | No current | No current | No current | – | – | – | –
2 | O=C(O[C@@H]1CN[C@H](C(=O)O)C1)c1ccc(C(O)c2ccccc2)cc1 (some centres unmarked) [ERA-9] | No current; also recorded: No inhibitory activity was detected | No current; also recorded: No inhibitory activity was detected | No current; also recorded: No inhibitory activity was detected | – | – | – | –
3 | N[C@@H](COC(=O)c1ccccc1)C(=O)O [ERA-25] | – | – | No current | 164000 ± 47000 | 656000 ± 115000 | – | –
4 | O=C(O[C@@H]1CN[C@H](C(=O)O)C1)c1ccc(-c2ccc(C(F)(F)F)cc2)cc1 [ERA-5] | – | – | – | 970 ± 100 | 1250 ± 240 | 1050 ± 150 | –
5 | O=C(O[C@@H]1CN[C@H](C(=O)O)C1)c1ccc(OCc2ccccc2)cc1 [ERA-31] | No current | No current | No current | – | – | – | –
6 | N[C@@H](COC(=O)c1ccc(NC(=O)c2ccccc2)cc1)C(=O)O [ERA-21] | – | – | – | 11000 ± 1250 | 12300 ± 1860 | 21300 ± 3150 | –
7 | O=C(O[C@@H]1CN[C@H](C(=O)O)C1)C(c1ccccc1)c1ccccc1 [ERA-29] | No current | No current | No current | – | – | – | –
8 | Cc1ccccc1-c1ccc(C(=O)O[C@@H]2CN[C@H](C(=O)O)C2)cc1 [ERA-6] | – | – | – | 1300 ± 130 | 1990 ± 360 | 2500 ± 930 | –
9 | O=C(O[C@@H]1CN[C@H](C(=O)O)C1)c1ccc(-c2ccc(F)cc2)cc1 [ERA-4] | – | – | – | 1290 ± 310 | 690 ± 70 | 2400 ± 720 | –
10 | O=C(Nc1ccc(C(=O)O[C@@H]2CN[C@H](C(=O)O)C2)cc1)c1ccc(C(F)(F)F)cc1 [ERA-11] | No current | No current | No current | – | – | – | –
11 | O=C(O[C@H]1CN[C@H](C(=O)O)C1)c1ccc(C(=O)c2ccccc2)cc1 [ERA-35] | No current | No current | No current | – | – | – | –
12 | O=C(O[C@@H]1CN[C@H](C(=O)O)C1)c1ccc(-c2ccccc2)cc1 [Lc-BPE, L-cis hydroxyproline biphenyl ester] | – | – | – | – | – | 2220 ± 460 | ~3
13 | O=C(O[C@@H]1CN[C@H](C(=O)O)C1)c1ccccc1-c1ccccc1 [ERA-3] | No current | No current | No current | – | – | – | –
14 | O=C(O[C@@H]1CN[C@H](C(=O)O)C1)c1ccc(Oc2ccccc2)cc1 [ERA-16] | – | – | – | 7720 ± 1890 | 10300 ± 2150 | 6170 ± 1470 | –
